Where “and” joins values, the source holds several entries; their conditions need not be identical. Equal entries are not always repeated.
Legend:
female B6C3F1 mice = tested on: female B6C3F1 mice; parameters: method as in National Toxicology Program [2008]; settings: oral 188 mg HMF/kg for 104 weeks, ref National Toxicology Program [2008]; cited from earlier work
mSult2a1 = molecular target: T1, mSult2a1 (Mus musculus, UniProt P52843); assay: FFA sulfoconjugation assay (N6-MF-A formation with adenosine as scavenger); assay type: biochemical
T1 construct: made in house; host or cells: Salmonella typhimurium TA1538 (cytosolic fraction, enzyme not purified)
T1 sequence (P52843 1-285): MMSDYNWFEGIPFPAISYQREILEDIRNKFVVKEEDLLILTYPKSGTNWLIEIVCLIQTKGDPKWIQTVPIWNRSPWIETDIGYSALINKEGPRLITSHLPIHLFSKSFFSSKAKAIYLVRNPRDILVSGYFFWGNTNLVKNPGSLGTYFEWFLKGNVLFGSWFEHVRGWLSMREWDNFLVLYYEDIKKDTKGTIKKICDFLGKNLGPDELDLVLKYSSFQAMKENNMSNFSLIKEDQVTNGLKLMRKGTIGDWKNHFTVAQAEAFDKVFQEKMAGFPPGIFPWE
Summary of the method: (§1)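 Enzyme source: cytosolic preparations of TA1538 bacteria expressing single SULT forms. FFA + 10 mM adenosine, 20 min, 37 °C; stopped with cold methanol. Readout: N6-MF-A by UPLC-MS/MS, three MRM transitions, labelled internal standard; SULT-free background subtracted. Quadruplicates.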

rSult1a1 = molecular target: T2, rSult1a1 (Rattus norvegicus, UniProt P17988); assay: as above; assay type: biochemical; settings: 1 mM FFA
T2 construct: made in house; host or cells: Salmonella typhimurium TA1538 (cytosolic fraction, enzyme not purified)
Summary of the method: as §1

rSult1c2 = molecular target: T3, rSult1c2 (Rattus norvegicus, UniProt Q9WUW8); assay: as above; assay type: biochemical
T3 construct: made in house; host or cells: Salmonella typhimurium TA1538 (cytosolic fraction, enzyme not purified)
Summary of the method: as §1

T2 sequence (P17988 whole entry): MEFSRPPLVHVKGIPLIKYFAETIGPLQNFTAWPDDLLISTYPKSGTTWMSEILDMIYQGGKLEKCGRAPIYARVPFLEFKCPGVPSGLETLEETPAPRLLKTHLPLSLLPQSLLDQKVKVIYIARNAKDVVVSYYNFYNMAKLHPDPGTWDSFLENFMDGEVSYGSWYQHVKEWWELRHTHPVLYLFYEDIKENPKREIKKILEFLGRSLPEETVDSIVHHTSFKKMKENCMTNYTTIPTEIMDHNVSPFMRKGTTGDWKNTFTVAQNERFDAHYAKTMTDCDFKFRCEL
T3 sequence (Q9WUW8 whole entry): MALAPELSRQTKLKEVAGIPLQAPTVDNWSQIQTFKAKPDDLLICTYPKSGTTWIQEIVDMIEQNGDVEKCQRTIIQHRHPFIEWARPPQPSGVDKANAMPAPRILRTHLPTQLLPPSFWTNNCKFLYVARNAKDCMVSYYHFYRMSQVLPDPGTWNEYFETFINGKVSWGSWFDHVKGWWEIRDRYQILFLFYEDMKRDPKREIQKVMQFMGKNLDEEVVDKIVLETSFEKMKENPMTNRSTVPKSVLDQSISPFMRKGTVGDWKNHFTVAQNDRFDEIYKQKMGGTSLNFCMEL

SMILES	carcinogenic effect (female B6C3F1 mice)	Rate of N6-MF-A formation (mSult2a1; 0.1 mM FFA)	Rate of N6-MF-A formation (mSult2a1; 1 mM FFA)	Rate of N6-MF-A formation (mSult2a1; 10 mM FFA)	Rate of N6-MF-A formation (rSult1a1)	Rate of N6-MF-A formation (corr.) (rSult1a1; corrected by actual SULT concentration in the cytosolic preparation)	ratio of N6-MF-A formation, rSult1a1 vs rSult1b1 (rSult1a1; corrected rates)	ratio of N6-MF-A formation, rSult1a1 vs rSult1c1 (rSult1a1; corrected rates)	Rate of N6-MF-A formation (rSult1c2; 0.1 mM FFA)	Rate of N6-MF-A formation (rSult1c2; 1 mM FFA)	Rate of N6-MF-A formation (rSult1c2; 10 mM FFA)
O=Cc1ccc(CO)o1 [HMF, 5-Hydroxymethylfurfural]	increased incidences of hepatocellular adenomas	–	–	–	–	–	–	–	–	–	–
OCc1ccco1 [FFA, furfuryl alcohol]	–	<18 fmol N ^6-MF-A/mg/min	<20 fmol N ^6-MF-A/mg/min	154 ± 2 fmol N ^6-MF-A/mg/min	31.8 ± 0.8 fmol N ^6-MF-A/mg/min	24,400 fmol N ^6-MF-A/mg/min and 24,400 ± 600 fmol N ^6-MF-A/mg/min	~71 fold	about 6 fold	<18 fmol N ^6-MF-A/mg/min	<20 fmol N ^6-MF-A/mg/min	<44 fmol N ^6-MF-A/mg/min
